Laboratory results taken from ChEMBL document CHEMBL3046512, “Flubendiamide, a Novel Insecticide Highly Active against Lepidopterous Insect Pests” (J Pestic Sci, 2005).
Active and inactive are the calls of the source. No cut-off for these calls is given here.

Columns and labels:
Plutella xylostella [1] = experiment: Insecticidal activity against third-instar larvae of Plutella xylostella (diamondback moth) in cabbage leaf disk after 4 to 7 days by leaf dipping method; assay type: functional, organism-based
Spodoptera litura [2] = experiment: Insecticidal activity against fifth-instar larvae of Spodoptera litura in cabbage leaf disk after 4 to 7 days by leaf dipping method; assay type: functional, organism-based
Plutella xylostella [3] = experiment: Insecticidal activity against third-instar larvae of organophosphate-resistant Plutella xylostella (diamondback moth) in cabbage leaf disk after 4 to 7 days by leaf dipping method; assay type: functional, organism-based
Plutella xylostella [4] = experiment: Insecticidal activity against third-instar larvae of carbamate-resistant Plutella xylostella (diamondback moth) in cabbage leaf disk after 4 to 7 days by leaf dipping method; assay type: functional, organism-based
Spodoptera litura [5] = experiment: Insecticidal activity against sixth-instar larvae of Spodoptera litura assessed as sustained body contraction at 2.4 ug/larvae after 24 hr; assay type: functional, organism-based
Plutella xylostella [6] = experiment: Insecticidal activity against third-instar larvae of benzoylphenylurea-resistant Plutella xylostella (diamondback moth) in cabbage leaf disk after 4 to 7 days by leaf dipping method; assay type: functional, organism-based
Plutella xylostella [7] = experiment: Insecticidal activity against third-instar larvae of synthetic pyrethroid-resistant Plutella xylostella (diamondback moth) in cabbage leaf disk after 4 to 7 days by leaf dipping method; assay type: functional, organism-based
Neoseiulus cucumeris = experiment: Toxicity in adlult of Neoseiulus cucumeris after 2 days by spraying on food and insect method; assay type: organism-based; conditions: in vivo, 48 h
[8] = test system: Coccinella septempunctata brucki; experiment: Toxicity in adult of Coccinella septempunctata brucki after 4 days by insect dipping method; assay type: organism-based; conditions: in vivo, 96 h
Spodoptera litura [9] = experiment: Insecticidal activity against fifth-instar larvae of Spodoptera litura assessed as thickening and shortening without convulsion at 100 mg/l after 24 hr; assay type: functional, organism-based
Homona magnanima = experiment: Insecticidal activity against fourth-instar larvae of Homona magnanima in tea leaf; assay type: functional, organism-based
Misumenops = experiment: Toxicity in adult of Misumenops tricuspidatus after 4 days by insect dipping method; assay type: organism-based; conditions: in vivo, 96 h
Chilo suppressalis = experiment: Insecticidal activity against third-instar larvae of Chilo suppressalis (rice stem borer) […]; assay type: functional, organism-based
Encarsia formosa = experiment: Toxicity in adult Encarsia formosa after 2 days by dry film method; assay type: organism-based; conditions: in vivo, 48 h
Aphidoletes aphidimyza = experiment: Toxicity in larvae of Aphidoletes aphidimyza after 2 days by spraying on food and insect method; assay type: organism-based; conditions: in vivo, 48 h
Cotesia glomerata = experiment: Toxicity in adult Cotesia glomerata after 2 days by dry film method; assay type: organism-based; conditions: in vivo, 48 h
Pardosa pseudoannulata = experiment: Toxicity in adult of Pardosa pseudoannulata after 4 days by insect dipping method; assay type: organism-based; conditions: in vivo, 96 h
Aphidius colemani = experiment: Toxicity in adlult of Aphidius colemani after 2 days by dry film method; assay type: organism-based; conditions: in vivo, 48 h
Harmonia axyridis = experiment: Toxicity in adult of Harmonia axyridis after 4 days by insect dipping method; assay type: organism-based; conditions: in vivo, 96 h
Hellula undalis = experiment: Insecticidal activity against third-instar larvae of Hellula undalis in cabbage leaf; assay type: functional, organism-based
Helicoverpa armigera = experiment: Insecticidal activity against Helicoverpa armigera; assay type: functional, organism-based
Chrysoperla carnea = experiment: Toxicity in larvae of Chrysoperla carnea after 2 days by spraying on food and insect method; assay type: organism-based; conditions: in vivo, other, 48 h
Autographa nigrisigna = experiment: Insecticidal activity against third-instar larvae of Autographa nigrisigna in cabbage leaf; assay type: functional, organism-based
Plutella xylostella [10] = experiment: Insecticidal activity against third-instar larvae of insecticide-resistant Plutella xylostella (diamondback moth) in cabbage leaf disk after 4 to 7 days by leaf dipping method; assay type: functional, organism-based
Orius strigicollis = experiment: Toxicity in adult of Orius strigicollis after 2 days by spraying on food and insect method; assay type: organism-based; conditions: in vivo, 48 h
Phytoseiulus persimilis = experiment: Toxicity in adult of Phytoseiulus persimilis after 2 days by spraying on food and insect method; assay type: organism-based; conditions: in vivo, 48 h
Pieris rapae crucivora = experiment: Insecticidal activity against second to third-instar larvae of Pieris rapae crucivora; assay type: functional, organism-based
Spodoptera litura [11] = experiment: Insecticidal activity against sixth-instar larvae of Spodoptera litura assessed as sustained body contraction at 0.24 ug/larvae after 24 hr; assay type: functional, organism-based
Spodoptera litura [12] = experiment: Insecticidal activity against fifth-instar larvae of Spodoptera litura assessed as gradual contraction of insect body at 100 mg/l after 24 hr; assay type: functional, organism-based
Adoxophyes honmai = experiment: Insecticidal activity against fourth-instar larvae of Adoxophyes honmai in tea leaf; assay type: functional, organism-based
Agrotis segetum = experiment: Insecticidal activity against two to third-instar larvae of Agrotis segetum in cabbage leaf; assay type: functional, organism-based

Cc1cc(Cl)ccc1NC(=O)c1ccc(Cl)cc1C(=O)NC(C)C
EC50 (Plutella xylostella [1]): 5 mgAi/L
EC50 (Spodoptera litura [2]): > 500 mgAi/L

CCCSP(=S)(OCC)Oc1ccc(Cl)cc1Cl (stereo unspecified) [PROTHIOFOS]
EC50 (Plutella xylostella [3]): 24.2 mgAi/L
EC50 (Plutella xylostella [1]): 3.78 mgAi/L

Cc1cc(C(F)(C(F)(F)F)C(F)(F)F)ccc1NC(=O)c1cccc(I)c1C(=O)NC(C)(C)C
EC50 (Plutella xylostella [1]): 0.3 mgAi/L
EC50 (Spodoptera litura [2]): 0.3 mgAi/L

CNC(=O)ON=C(C)SC [METHOMYL]
EC50 (Plutella xylostella [4]): 287 mgAi/L
EC50 (Plutella xylostella [1]): 14.5 mgAi/L

Cc1cc(OC(F)(F)F)ccc1NC(=O)c1cccc(I)c1C(=O)NC(C)C
EC50 (Plutella xylostella [1]): 0.3 mgAi/L
EC50 (Spodoptera litura [2]): 1 mgAi/L

CC(=O)NCC(C)(C)NC(=O)c1c(I)cccc1C(=O)Nc1ccc(C(F)(C(F)(F)F)C(F)(F)F)cc1C
EC50 (Spodoptera litura [2]): 0.1 mgAi/L

Cc1cc(Cl)ccc1NC(=O)c1cccc(F)c1C(=O)NC(C)C
EC50 (Plutella xylostella [1]): 1 mgAi/L
EC50 (Spodoptera litura [2]): > 500 mgAi/L

CC(C)[C@@]1(O)[C@@H](OC(=O)c2cc[nH]c2)[C@@]2(O)[C@]3(C)C[C@@]4(O)O[C@@]5([C@H](O)[C@@H](C)CC[C@]35O)[C@@]2(O)[C@@]41C
Activity (Spodoptera litura [5]): Active

Cc1ccc(Cl)cc1NC(=O)c1cccc(I)c1C(=O)NC(C)C
EC50 (Plutella xylostella [1]): 3 mgAi/L
EC50 (Spodoptera litura [2]): 10 mgAi/L

O=C(NC(=O)c1c(F)cccc1F)Nc1ccc(Oc2ccc(C(F)(F)F)cc2Cl)cc1F [FLUFENOXURON]
EC50 (Plutella xylostella [1]): 0.05 mgAi/L
EC50 (Plutella xylostella [6]): 233 mgAi/L

Cc1cc(C(F)(C(F)(F)F)C(F)(F)F)ccc1NC(=O)c1cccc(I)c1C(=O)NC(C)C
EC50 (Plutella xylostella [1]): 0.1 mgAi/L
EC50 (Spodoptera litura [2]): 0.3 mgAi/L

Cc1cc(Cl)ccc1NC(=O)c1ccccc1C(=O)NC(C)C
EC50 (Plutella xylostella [1]): 3 mgAi/L
EC50 (Spodoptera litura [2]): 10 mgAi/L

CC1(C)C(/C=C(\Cl)C(F)(F)F)C1C(=O)OC(C#N)c1cccc(Oc2ccccc2)c1 (stereo unspecified) [CYHALOTHRIN]
EC50 (Plutella xylostella [1]): 0.24 mgAi/L
EC50 (Plutella xylostella [7]): 869 mgAi/L

Cc1cc(Cl)ccc1NC(=O)c1c(Cl)cccc1C(=O)NC(C)C
EC50 (Plutella xylostella [1]): 10 mgAi/L
EC50 (Spodoptera litura [2]): > 500 mgAi/L

Cc1cc(C(F)(C(F)(F)F)C(F)(F)F)ccc1NC(=O)c1cccc(I)c1C(=O)NC(C)(C)CS(C)(=O)=O [FLUBENDIAMIDE]
EC30 (Neoseiulus cucumeris): > 200 mgAi/L
EC30 [8]: > 200 mgAi/L
Activity (Spodoptera litura [9]): Active
EC50 (Homona magnanima): 0.58 mgAi/L
EC30 (Misumenops): > 200 mgAi/L
EC50 (Chilo suppressalis): < 0.01 mgAi/L
EC30 (Encarsia formosa): > 400 mgAi/L
EC30 (Aphidoletes aphidimyza): > 100 mgAi/L
EC30 (Cotesia glomerata): > 100 mgAi/L
EC30 (Pardosa pseudoannulata): > 100 mgAi/L
EC30 (Aphidius colemani): > 400 mgAi/L
EC30 (Harmonia axyridis): > 200 mgAi/L
EC50 (Hellula undalis): 0.01 mgAi/L
EC50 (Plutella xylostella [1]): 0.001 mgAi/L
Activity (Helicoverpa armigera): Active
EC30 (Chrysoperla carnea): > 100 mgAi/L
EC50 (Autographa nigrisigna): 0.02 mgAi/L
EC50 (Plutella xylostella [10]): 0.002 mgAi/L
EC30 (Orius strigicollis): > 100 mgAi/L
EC50 (Spodoptera litura [2]): 0.03 mgAi/L
EC30 (Phytoseiulus persimilis): > 200 mgAi/L
EC50 (Pieris rapae crucivora): 0.03 mgAi/L
Activity (Spodoptera litura [11]): Active
Activity (Spodoptera litura [12]): Active
EC50 (Adoxophyes honmai): 0.38 mgAi/L
EC50 (Agrotis segetum): 0.18 mgAi/L

Cc1cc(Cl)ccc1NC(=O)c1cccc(I)c1C(=O)NC(C)C
EC50 (Plutella xylostella [1]): 0.3 mgAi/L
EC50 (Spodoptera litura [2]): 3 mgAi/L

COc1ccc(NC(=O)c2cccc(I)c2C(=O)NC(C)C)c(C)c1
EC50 (Plutella xylostella [1]): 10 mgAi/L
EC50 (Spodoptera litura [2]): 30 mgAi/L

Cc1cc(Cl)ccc1NC(=O)c1cc(Cl)ccc1C(=O)NC(C)C
EC50 (Plutella xylostella [1]): 50 mgAi/L
EC50 (Spodoptera litura [2]): > 500 mgAi/L

Cc1cc(Cl)ccc1NC(=O)c1cccc(Br)c1C(=O)NC(C)C
EC50 (Plutella xylostella [1]): 1 mgAi/L
EC50 (Spodoptera litura [2]): 10 mgAi/L

Cc1cc(Cl)ccc1NC(=O)c1cccc([N+](=O)[O-])c1C(=O)NC(C)C
EC50 (Plutella xylostella [1]): 10 mgAi/L
EC50 (Spodoptera litura [2]): 10 mgAi/L

Cc1c(Cl)cccc1NC(=O)c1cccc(I)c1C(=O)NC(C)C
EC50 (Plutella xylostella [1]): 3 mgAi/L
EC50 (Spodoptera litura [2]): 10 mgAi/L

Cc1cc(Cl)ccc1NC(=O)c1cccc(Cl)c1C(=O)NC(C)C
EC50 (Plutella xylostella [1]): 1 mgAi/L
EC50 (Spodoptera litura [2]): 10 mgAi/L
